According to patent US20260240795A1 (KYOTO P[…] UNIVERSITY CORPORATION, priority 2023, published 2026):

Tested on: AMPK
Assay: AMPK activating activity in HK-2 cells treated with tunicamycin, Western blot
Assay type: cell-based, human
Details: tunicamycin 5 μg/ml with or without sephin1 1 μM, 24 hours, compared to untreated cells
Protocol: The HK-2 cell line is a proximal tubular cell line derived from normal kidney immortalized by transduction with human papilloma virus 16 (HPV-16) E6/E7 genes.
HK-2 cells were seeded in a six well plate at a cell density of 7×10^4 cells per well 24 hours prior to the start of the study (T−24). […] 24 hours later (at T24) cells were recovered and protein was analyzed by Western blot analysis.

**Q.** How did the “AMPK levels (AMPK/GAPDH)” value turn out when tunicamycin was run?
**A.** reduced
